This note sets out measurements from ChEMBL document CHEMBL1130384, “Address and message sequences for the nociceptin receptor: a structure-activity study of nociceptin-(1-13)-peptide amide” (J Med Chem, 1997).

A word on the Emax: it is the maximal effect, on the per cent scale that the assay sets. One may read the EC50 as the concentration at which the effect is half-maximal.

Test [1] is filed under the species Mus musculus. The test can be described thus: Tested for maximal effect induced by agonist. The format is functional.
The species entered for test [2] is Mus musculus. The test can be described thus: Tested for apparent affinity on electrically stimulated mouse vas deferens. Type of test: functional, organism-based.
The species entered for test [3] is Mus musculus. The test can be described thus: Tested for antagonistic properties by using NC(1-13)-NH2; In active at 10 uM. The format is functional, organism-based.
The species entered for test [4] is Mus musculus. The test can be described thus: Tested for maximal effect induced by agonist at 10 uM; Inactive. Type of test: functional, organism-based.
The species entered for test [5] is Mus musculus. The test can be described thus: Tested for apparent affinity on electrically stimulated mouse vas deferens at 10 uM; Inactive. Type of test: functional, organism-based.
The species named for test [6] is Mus musculus. The test can be described thus: Tested for antagonistic properties by using NC(1-13)-NH2 as agonist; Inactive at 10 uM. Type of test: functional, organism-based.
The species entered for test [7] is Mus musculus. In words: Tested for maximal effect induced by agonist at 10 uM; In active. Type of test: functional, organism-based.
The species entered for test [8] is Mus musculus. In words: Tested for apparent affinity on electrically stimulated mouse vas deferens at 10 uM; In active. Type of test: functional, organism-based.
The species entered for test [9] is Mus musculus. The test can be described thus: Tested for maximal effect induced by agonist at 10 uM; Slight effect was detected. Type of test: functional, organism-based.
The species entered for test [10] is Mus musculus. In words: Tested for apparent affinity on electrically stimulated mouse vas deferens at 10 uM; Slight effect was detected. Type of test: functional, organism-based.

Calls of active or inactive are those of the source. The rule behind the calls is not given here. Residues, ends and D or L forms follow the SMILES beside them.

For `C[C@H](NC(=O)CNC(=O)[C@@H](NC(=O)[C@H](Cc1ccccc1)NC(=O)CNC(=O)CNC(=O)[C@@H](N)Cc1ccccc1)[C@@H](C)O)C(=O)N[C@@H](CCCNC(=N)N)C(=O)N[C@@H](CCCCN)C(=O)N[C@@H](CO)C(=O)N[C@@H](C)C(=O)N[C@@H](CCCNC(=N)N)C(=O)N[C@@H](CCCCN)C(N)=O`, the Emax in test [1] was -84%. Besides, in test [2], the EC50 is 17.8 nM.
In the case of H-FGGFTGARK-NH2, the outcome in test [3] was inactive. Besides, the Emax result in test [4] is “inactive”. The “Log EC50” value in [5] was “inactive”.
Regarding `C[C@H](NC(=O)CNC(=O)[C@@H](NC(=O)[C@H](Cc1ccccc1)NC(=O)CNC(=O)CNC(=O)[C@@H](N)Cc1ccccc1)[C@@H](C)O)C(=O)N[C@@H](CCCN=C(N)N)C(=O)N[C@@H](CCCCN)C(=O)N[C@@H](CO)C(=O)N[C@@H](C)C(=O)N[C@@H](CCCN=C(N)N)C(=O)N[C@@H](CCCCN)C(=O)O`, the Emax in test [1] is -73%. Moreover, the concentration for a half-maximal effect (EC50) in test [2] is 2240 nM.
For `NC(=O)[C@H](Cc1ccccc1)NC(=O)CNC(=O)CNC(=O)[C@@H](N)Cc1ccccc1` (H-FGGF-NH2), the result in [6] was inactive. Further, the Emax entry in test [4] was “inactive”. In test [5], the “Log EC50” value was “inactive”.
Take H-FGFTGARKSARK-NH2: the result in test [3] was inactive. The Emax entry in test [7] is “inactive”. Also, the “Log EC50” value in [8] is “inactive”.
For H-FAAFTGARKSARK-NH2, in test [3], the outcome was inactive. Also, the Emax result in test [7] is “inactive”. In addition, the “Log EC50” value in [5] was “inactive”.
Take H-FGGFTGARKSAR-NH2: in test [1], the Emax was -79%. For the same compound, the EC50 in test [2] was 871 nM.
As for H-FGGFT-NH2, the result in test [3] was inactive. Also, the Emax entry in test [4] is “inactive”. Also, in test [5], the “Log EC50” value was “inactive”.
Take H-FGGFTGARKSA-NH2: in test [3], the outcome was inactive. For the same compound, in [9], the Emax entry is listed as “crc incom”. Further, the “Log EC50” value in [10] was “crc incom”.
Consider H-LGGFTGARKSARK-NH2, for which, in test [1], the Emax is -80%. For the same compound, the EC50 in test [2] was 28.2 nM.
For the compound `C[C@H](NC(=O)CNC(=O)[C@@H](NC(=O)[C@H](Cc1ccccc1)NC(=O)CNC(=O)CNC(=O)[C@@H](N)Cc1ccccc1)[C@@H](C)O)C(=O)N[C@@H](CCCN=C(N)N)C(=O)N[C@@H](CCCCN)C(=O)N[C@@H](CO)C(=O)N[C@@H](C)C(=O)N[C@@H](CCCN=C(N)N)C(=O)O`, the result in test [3] was inactive. Moreover, in [4], the Emax entry was “inactive”. Further, in [5], the “Log EC50” value was “inactive”.
`C[C@H](NC(=O)CNC(=O)[C@@H](NC(=O)[C@H](Cc1ccccc1)NC(=O)CNC(=O)CNC(=O)[C@H](N)Cc1ccccc1)[C@@H](C)O)C(=O)N[C@@H](CCCN=C(N)N)C(=O)N[C@@H](CCCCN)C(=O)N[C@@H](CO)C(=O)N[C@@H](C)C(=O)N[C@@H](CCCN=C(N)N)C(=O)N[C@@H](CCCCN)C(N)=O`: the outcome in [3] was inactive. The Emax entry in test [9] was “crc incom”. In [10], the “Log EC50” value is “crc incom”.
H-FGGFTGAAASARK-NH2: the outcome in test [3] was inactive. Besides, in [9], the Emax result was “crc incom”. In addition, in test [10], the “Log EC50” value is reported as “crc incom”.
In the case of `CC(C)C[C@H](NC(=O)[C@H](CCCCN)NC(=O)[C@H](CCCNC(=N)N)NC(=O)[C@H](C)NC(=O)[C@H](CO)NC(=O)[C@H](CCCCN)NC(=O)[C@H](CCCNC(=N)N)NC(=O)[C@H](C)NC(=O)CNC(=O)[C@@H](NC(=O)[C@H](Cc1ccccc1)NC(=O)CNC(=O)CNC(=O)[C@@H](N)Cc1ccccc1)[C@@H](C)O)C(=O)N[C@@H](C)C(=O)N[C@@H](CC(N)=O)C(=O)N[C@@H](CCC(N)=O)C(=O)O` [NOCICEPTIN], in test [1], the Emax is -83%. Moreover, the EC50 in test [2] was 14.5 nM.
Regarding `C[C@H](NC(=O)CNC(=O)[C@@H](NC(=O)[C@@H](Cc1ccccc1)NC(=O)CNC(=O)CNC(=O)[C@@H](N)Cc1ccccc1)[C@@H](C)O)C(=O)N[C@@H](CCCN=C(N)N)C(=O)N[C@@H](CCCCN)C(=O)N[C@@H](CO)C(=O)N[C@@H](C)C(=O)N[C@@H](CCCN=C(N)N)C(=O)N[C@@H](CCCCN)C(N)=O`, in [3], the outcome was inactive. Also, the Emax result in test [9] is on record as “crc incom”. Also, in test [10], the “Log EC50” value is recorded as “crc incom”.
For the compound `C=CCN(CC=C)[C@@H](Cc1ccccc1)C(=O)NCC(=O)NCC(=O)N[C@@H](Cc1ccccc1)C(=O)N[C@H](C(=O)NCC(=O)N[C@@H](C)C(=O)N[C@@H](CCCN=C(N)N)C(=O)N[C@@H](CCCCN)C(=O)N[C@@H](CO)C(=O)N[C@@H](C)C(=O)N[C@@H](CCCN=C(N)N)C(=O)N[C@@H](CCCCN)C(N)=O)[C@@H](C)O`, the outcome in [3] was inactive. Further, the Emax entry in test [4] is “inactive”. Also, in test [5], the “Log EC50” value was “inactive”.
For H-FGGLTGARKSARK-NH2, the result in test [3] was inactive. Moreover, in [4], the Emax result was “inactive”. The “Log EC50” value in test [5] was “inactive”.
Take `CC(=O)N[C@@H](Cc1ccccc1)C(=O)NCC(=O)NCC(=O)N[C@@H](Cc1ccccc1)C(=O)N[C@H](C(=O)NCC(=O)N[C@@H](C)C(=O)N[C@@H](CCCN=C(N)N)C(=O)N[C@@H](CCCCN)C(=O)N[C@@H](CO)C(=O)N[C@@H](C)C(=O)N[C@@H](CCCN=C(N)N)C(=O)N[C@@H](CCCCN)C(N)=O)[C@@H](C)O`: the Emax in [1] was -79%. Also, the concentration giving a half-maximal response (EC50) in [2] was 1510 nM.
